Assay results published in publication PMC6409085, “Three odorant-binding proteins are involved in the behavioral response of Sogatella furcifera to rice plant volatiles” (PeerJ, 2019).
Several values for one entry are separate records, joined by “and”; a condition that tells them apart may be missing. Identical values can stand only once.

How the values were obtained:
Assay in all cases: biochemical
Format in all cases: binding
SfurOBP1 = SfurOBP1 (Sogatella furcifera, UniProt V5T8N5); conditions: for Fluorescence competitive binding assay, fluorescence intensity: OBP1, three replicate columns
SfurOBP1, sequence (V5T8N5 entry or part of it): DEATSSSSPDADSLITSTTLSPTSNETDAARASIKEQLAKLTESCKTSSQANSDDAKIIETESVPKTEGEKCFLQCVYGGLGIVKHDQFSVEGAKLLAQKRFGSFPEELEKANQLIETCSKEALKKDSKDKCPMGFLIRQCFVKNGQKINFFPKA
Method: (§1) Thirty-six rice odorants ([He et al., 2014]; [Wang et al., 2017]) and 1-N-phenyl-naphthylamine (1-NPN) were purchased from Sigma-Aldrich (St Louis, MO, USA). These odorants and 1-NPN were dissolved in high-performance liquid chromatography (HPLC) purify grade methanol for 1.0 mM as work solution.
(§2) Fluorescence competitive binding assays were performed on Tecan Spark 10M (Tecan Group Ltd., Männedorf, Switzerland) with the F96 Black ELIAS Plate (Sangon) ([Khuhro et al., 2017]; [Liu et al., 2017]). The solutions were excited at 337 nm and emission spectra were recorded between 390 and 490 nm. First, to test the binding constants of 1-NPN to the SfurOBPs, a 2.0 µM solution of protein in 50 mM Tris-HCl (pH = 7.4) was titrated with 1 mM 1-NPN to achieve virous concentrations. Next, the competitive binding of each odorant was measured using the 1-NPN as fluorescent reporter and odorant as competitor. The concentrations of protein and 1-NPN were both 2.0 µM, the odorant added after protein and 1-NPN added into the well of ELIAS Plate for 2 min. The final concentrations of each competitor were 2, 4, 6, 8, 10, 12, 14, 16, 18 and 20 µM. After 2 min of odorant added, the fluorescence intensity was measured and recorded. The volume of mixed solution in each well was maintained at 250 µL. Each interaction was performed in triplicates.
(§3) GraphPad Prism 7.0 software (GraphPad Software, Inc., La Jolla, CA, USA) was used to calculated and generated the binding constants (K1−NPN) of 1-NPN to SfurOBPs and relative Scatchard plots ([Ban et al., 2003]; [Li et al., 2016]). Dissociation constant (Ki) of each odorant to SfurOBP was computed from the corresponding IC50 value (the half maximal inhibitory concentration), using the following equation: Ki=[IC50]/(1 + [1-NPN]/K1−NPN), where [1-NPN] is the free concentration of 1-NPN and K1−NPN is the dissociation constant of the complex protein/1-NPN.

SfurOBP11 = SfurOBP11 (Sogatella furcifera, UniProt V5T6E3)
SfurOBP11, sequence (V5T6E3 entry or part of it): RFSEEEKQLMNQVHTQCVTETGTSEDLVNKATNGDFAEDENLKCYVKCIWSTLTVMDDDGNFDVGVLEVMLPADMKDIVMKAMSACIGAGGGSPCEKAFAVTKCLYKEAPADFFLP
Method: as §1, §2, §3

SfurOBP2 = SfurOBP2 (Sogatella furcifera, UniProt V5T759)
SfurOBP2, sequence (V5T759 entry or part of it): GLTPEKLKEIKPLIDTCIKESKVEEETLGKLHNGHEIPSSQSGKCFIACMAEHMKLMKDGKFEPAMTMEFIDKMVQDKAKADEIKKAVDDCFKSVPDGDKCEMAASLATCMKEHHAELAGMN
Method: as §1, §2, §3

SfurOBP3 = SfurOBP3 (Sogatella furcifera, UniProt V5T818); conditions: for Fluorescence competitive binding assay, fluorescence intensity: OBP3, three replicate columns
SfurOBP3, sequence (V5T818 entry or part of it): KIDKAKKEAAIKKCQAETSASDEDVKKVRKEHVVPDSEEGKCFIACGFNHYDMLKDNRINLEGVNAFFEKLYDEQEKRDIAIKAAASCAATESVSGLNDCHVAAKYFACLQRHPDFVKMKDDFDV
Method: as §1, §2, §3

C[C@@H]1CC[C@H]2C(C)(C)[C@H]3C[C@@]12CC[C@@]3(C)O [cedrol]
IC50 (SfurOBP1): > 20 µM
Fluorescence competitive binding assay, fluorescence intensity (SfurOBP1; ligand concentration 2 (μM)): 6995 and 7876 and 8408
Fluorescence competitive binding assay, fluorescence intensity (SfurOBP1; ligand concentration 4 (μM)): 8498 and 11154 and 11504
Fluorescence competitive binding assay, fluorescence intensity (SfurOBP1; ligand concentration 6 (μM)): 10601 and 9220 and 11976
Fluorescence competitive binding assay, fluorescence intensity (SfurOBP1; ligand concentration 8 (μM)): 9019 and 11150 and 9994
Fluorescence competitive binding assay, fluorescence intensity (SfurOBP1; ligand concentration 10 (μM)): 10329 and 10734 and 11532
Fluorescence competitive binding assay, fluorescence intensity (SfurOBP1; ligand concentration 12 (μM)): 12388 and 11952 and 13123
Fluorescence competitive binding assay, fluorescence intensity (SfurOBP1; ligand concentration 14 (μM)): 12489 and 14285 and 14049
Fluorescence competitive binding assay, fluorescence intensity (SfurOBP1; ligand concentration 16 (μM)): 13812 and 12078 and 13153
Fluorescence competitive binding assay, fluorescence intensity (SfurOBP1; ligand concentration 18 (μM)): 15290 and 17034 and 15790
Fluorescence competitive binding assay, fluorescence intensity (SfurOBP1; ligand concentration 20 (μM)): 14831 and 15054 and 15511
IC50 (SfurOBP11): > 20 µM
Fluorescence intensity, fluorescence competitive binding assay, OBP11 (SfurOBP11; ligand concentration 2, replicate 1): 32664
Fluorescence intensity, fluorescence competitive binding assay, OBP11 (SfurOBP11; ligand concentration 2, replicate 2): 32061
Fluorescence intensity, fluorescence competitive binding assay, OBP11 (SfurOBP11; ligand concentration 2, replicate 3): 32191
Fluorescence intensity, fluorescence competitive binding assay, OBP11 (SfurOBP11; ligand concentration 4, replicate 1): 30812
Fluorescence intensity, fluorescence competitive binding assay, OBP11 (SfurOBP11; ligand concentration 4, replicate 2): 37566
Fluorescence intensity, fluorescence competitive binding assay, OBP11 (SfurOBP11; ligand concentration 4, replicate 3): 35078
Fluorescence intensity, fluorescence competitive binding assay, OBP11 (SfurOBP11; ligand concentration 6, replicate 1): 34551
Fluorescence intensity, fluorescence competitive binding assay, OBP11 (SfurOBP11; ligand concentration 6, replicate 2): 34452
Fluorescence intensity, fluorescence competitive binding assay, OBP11 (SfurOBP11; ligand concentration 6, replicate 3): 36785
Fluorescence intensity, fluorescence competitive binding assay, OBP11 (SfurOBP11; ligand concentration 8, replicate 1): 32906
Fluorescence intensity, fluorescence competitive binding assay, OBP11 (SfurOBP11; ligand concentration 8, replicate 2): 35488
Fluorescence intensity, fluorescence competitive binding assay, OBP11 (SfurOBP11; ligand concentration 8, replicate 3): 34811
Fluorescence intensity, fluorescence competitive binding assay, OBP11 (SfurOBP11; ligand concentration 10, replicate 1): 34631
Fluorescence intensity, fluorescence competitive binding assay, OBP11 (SfurOBP11; ligand concentration 10, replicate 2): 35572
Fluorescence intensity, fluorescence competitive binding assay, OBP11 (SfurOBP11; ligand concentration 10, replicate 3): 36351
Fluorescence intensity, fluorescence competitive binding assay, OBP11 (SfurOBP11; ligand concentration 12, replicate 1): 32777
Fluorescence intensity, fluorescence competitive binding assay, OBP11 (SfurOBP11; ligand concentration 12, replicate 2): 37222
Fluorescence intensity, fluorescence competitive binding assay, OBP11 (SfurOBP11; ligand concentration 12, replicate 3): 35927
Fluorescence intensity, fluorescence competitive binding assay, OBP11 (SfurOBP11; ligand concentration 14, replicate 1): 33134
Fluorescence intensity, fluorescence competitive binding assay, OBP11 (SfurOBP11; ligand concentration 14, replicate 2): 35392
Fluorescence intensity, fluorescence competitive binding assay, OBP11 (SfurOBP11; ligand concentration 14, replicate 3): 35226
Fluorescence intensity, fluorescence competitive binding assay, OBP11 (SfurOBP11; ligand concentration 16, replicate 1): 32933
Fluorescence intensity, fluorescence competitive binding assay, OBP11 (SfurOBP11; ligand concentration 16, replicate 2): 34203
Fluorescence intensity, fluorescence competitive binding assay, OBP11 (SfurOBP11; ligand concentration 16, replicate 3): 33568
Fluorescence intensity, fluorescence competitive binding assay, OBP11 (SfurOBP11; ligand concentration 18, replicate 1): 37284
Fluorescence intensity, fluorescence competitive binding assay, OBP11 (SfurOBP11; ligand concentration 18, replicate 2): 38034
Fluorescence intensity, fluorescence competitive binding assay, OBP11 (SfurOBP11; ligand concentration 18, replicate 3): 36646
Fluorescence intensity, fluorescence competitive binding assay, OBP11 (SfurOBP11; ligand concentration 20, replicate 1): 39273
Fluorescence intensity, fluorescence competitive binding assay, OBP11 (SfurOBP11; ligand concentration 20, replicate 2): 38740
Fluorescence intensity, fluorescence competitive binding assay, OBP11 (SfurOBP11; ligand concentration 20, replicate 3): 33015
IC50 (SfurOBP2): > 20 µM
Fluorescence competitive binding assay, OBP2 (raw fluorescence reading) (SfurOBP2; ligand concentration 2 (unit not given), replicate column 1 of 3): 24497
Fluorescence competitive binding assay, OBP2 (raw fluorescence reading) (SfurOBP2; ligand concentration 2 (unit not given), replicate column 2 of 3): 23498
Fluorescence competitive binding assay, OBP2 (raw fluorescence reading) (SfurOBP2; ligand concentration 2 (unit not given), replicate column 3 of 3): 23591
Fluorescence competitive binding assay, OBP2 (raw fluorescence reading) (SfurOBP2; ligand concentration 4 (unit not given), replicate column 1 of 3): 27085
Fluorescence competitive binding assay, OBP2 (raw fluorescence reading) (SfurOBP2; ligand concentration 4 (unit not given), replicate column 2 of 3): 27496
Fluorescence competitive binding assay, OBP2 (raw fluorescence reading) (SfurOBP2; ligand concentration 4 (unit not given), replicate column 3 of 3): 25040
Fluorescence competitive binding assay, OBP2 (raw fluorescence reading) (SfurOBP2; ligand concentration 6 (unit not given), replicate column 1 of 3): 30107
Fluorescence competitive binding assay, OBP2 (raw fluorescence reading) (SfurOBP2; ligand concentration 6 (unit not given), replicate column 2 of 3): 26969
Fluorescence competitive binding assay, OBP2 (raw fluorescence reading) (SfurOBP2; ligand concentration 6 (unit not given), replicate column 3 of 3): 25579
Fluorescence competitive binding assay, OBP2 (raw fluorescence reading) (SfurOBP2; ligand concentration 8 (unit not given), replicate column 1 of 3): 26802
Fluorescence competitive binding assay, OBP2 (raw fluorescence reading) (SfurOBP2; ligand concentration 8 (unit not given), replicate column 2 of 3): 26446
Fluorescence competitive binding assay, OBP2 (raw fluorescence reading) (SfurOBP2; ligand concentration 8 (unit not given), replicate column 3 of 3): 25979
Fluorescence competitive binding assay, OBP2 (raw fluorescence reading) (SfurOBP2; ligand concentration 10 (unit not given), replicate column 1 of 3): 26972
Fluorescence competitive binding assay, OBP2 (raw fluorescence reading) (SfurOBP2; ligand concentration 10 (unit not given), replicate column 2 of 3): 25158
Fluorescence competitive binding assay, OBP2 (raw fluorescence reading) (SfurOBP2; ligand concentration 10 (unit not given), replicate column 3 of 3): 26522
Fluorescence competitive binding assay, OBP2 (raw fluorescence reading) (SfurOBP2; ligand concentration 12 (unit not given), replicate column 1 of 3): 24638
Fluorescence competitive binding assay, OBP2 (raw fluorescence reading) (SfurOBP2; ligand concentration 12 (unit not given), replicate column 2 of 3): 24959
Fluorescence competitive binding assay, OBP2 (raw fluorescence reading) (SfurOBP2; ligand concentration 12 (unit not given), replicate column 3 of 3): 25011
Fluorescence competitive binding assay, OBP2 (raw fluorescence reading) (SfurOBP2; ligand concentration 14 (unit not given), replicate column 1 of 3): 25754
Fluorescence competitive binding assay, OBP2 (raw fluorescence reading) (SfurOBP2; ligand concentration 14 (unit not given), replicate column 2 of 3): 26325
Fluorescence competitive binding assay, OBP2 (raw fluorescence reading) (SfurOBP2; ligand concentration 14 (unit not given), replicate column 3 of 3): 24806
Fluorescence competitive binding assay, OBP2 (raw fluorescence reading) (SfurOBP2; ligand concentration 16 (unit not given), replicate column 1 of 3): 22837
Fluorescence competitive binding assay, OBP2 (raw fluorescence reading) (SfurOBP2; ligand concentration 16 (unit not given), replicate column 2 of 3): 21773
Fluorescence competitive binding assay, OBP2 (raw fluorescence reading) (SfurOBP2; ligand concentration 16 (unit not given), replicate column 3 of 3): 21108
Fluorescence competitive binding assay, OBP2 (raw fluorescence reading) (SfurOBP2; ligand concentration 18 (unit not given), replicate column 1 of 3): 27379
Fluorescence competitive binding assay, OBP2 (raw fluorescence reading) (SfurOBP2; ligand concentration 18 (unit not given), replicate column 2 of 3): 25169
Fluorescence competitive binding assay, OBP2 (raw fluorescence reading) (SfurOBP2; ligand concentration 18 (unit not given), replicate column 3 of 3): 23516
Fluorescence competitive binding assay, OBP2 (raw fluorescence reading) (SfurOBP2; ligand concentration 20 (unit not given), replicate column 1 of 3): 25091
Fluorescence competitive binding assay, OBP2 (raw fluorescence reading) (SfurOBP2; ligand concentration 20 (unit not given), replicate column 2 of 3): 24420
Fluorescence competitive binding assay, OBP2 (raw fluorescence reading) (SfurOBP2; ligand concentration 20 (unit not given), replicate column 3 of 3): 23245
IC50 (SfurOBP3): > 20 µM
Fluorescence competitive binding assay, fluorescence intensity (SfurOBP3; ligand concentration 2): 55754 and 49842 and 56462
Fluorescence competitive binding assay, fluorescence intensity (SfurOBP3; ligand concentration 4): 68851 and 68657 and 83563
Fluorescence competitive binding assay, fluorescence intensity (SfurOBP3; ligand concentration 6): 77285 and 86181 and 100023
Fluorescence competitive binding assay, fluorescence intensity (SfurOBP3; ligand concentration 8): 86444 and 86480 and 86528
Fluorescence competitive binding assay, fluorescence intensity (SfurOBP3; ligand concentration 10): 98647 and 101699 and 124352
Fluorescence competitive binding assay, fluorescence intensity (SfurOBP3; ligand concentration 12): 107439 and 105795 and 90567
Fluorescence competitive binding assay, fluorescence intensity (SfurOBP3; ligand concentration 14): 124768 and 101594 and 116276
Fluorescence competitive binding assay, fluorescence intensity (SfurOBP3; ligand concentration 16): 81951 and 95706 and 104699
Fluorescence competitive binding assay, fluorescence intensity (SfurOBP3; ligand concentration 18): 130597 and 114825 and 98253
Fluorescence competitive binding assay, fluorescence intensity (SfurOBP3; ligand concentration 20): 111183 and 106493 and 98789
